From patent US20230406843A1, “Progranulin Modulators and Methods of Using the Same” (ARKUDA THERAPEUTICS, priority 2020, published 2023)
Like-named read-outs stand apart in the source and are kept apart here.

Experiments:
progranulin [1] = assay: In vivo progranulin secretion assay after oral administration; conditions: oral administration at 5 mg/kg; progranulin secretion post dose relative to the control
Procedure: In vivo Assays: Progranulin can be detected in tissue sample or biofluids including blood, plasma, brain, liver and cerebrospinal fluid (CSF) from different non-human animals including rat, mouse, dog, and cynomolgus monkeys. Progranulin concentration can be detected using one or more methods including an enzyme-linked immunosorbent assay (ELISA). Non-human animals including rat, mouse, dog, and cynomolgus monkeys are administered a compound as disclosed herein by one of several routes of administration including oral, subcutaneous, and intravenous routes of administration. Samples of tissue or biofluids are collected at specific times before and following compound administration. The amount of progranulin in a specific sample collected after compound administration is compared to the amount of progranulin detected in a sample of the same tissue or biofluid obtained prior to compound administration. […] Test compounds can be administered one or more times. When compounds are administered more than one time, the number of doses and the intervals between doses can be adjusted to any combination. For example, a test compound can be administered a single time, a test compound can be administered 8 times at intervals of 12 hours, and a test compound can be administered 4 times at intervals of 24 hours. The ability of a compound to increase progranulin can be quantified in several ways. […]

progranulin [2] = assay: Progranulin induction cellular assay (ELISA of secreted mouse PGRN); type: cell-based
In short: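 Mouse primary microglia, primary cortical neurons and BV-2 cells are used. BV-2 cells are plated in 96-well format the day before, with a 1 h attachment and 16 h incubation. Progranulin secreted into the medium is quantified by ELISA.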

[3] = progranulin induction assay, mouse pMG, primary cortical neurons and BV-2 cell lines named, cell type not given, ELISA-based readout, read-out: EC50

Row | EC50 (progranulin [2]; [3]) | Compound | Activity Level (progranulin [1]) | EC50 (progranulin [2]; Mus musculus, BV-2, read-out: EC50 μM)
1 | 0.09 µM | N[C@@H]1CC[C@@H](C(=O)N2CCc3ccccc3[C@@H]2c2ccc(F)cc2)OC1 [Compound 5015, ((2S,5R)-5-aminotetrahydro-2H-pyran-2-yl)((S)-1-(4-fluorophenyl)-3,4-dihydroisoquinolin-2(1H)-yl)methanone] | 7 (at least about 300% (Activity level 7)) | –
2 | 0.079 µM | N[C@H]1CC[C@H](C(=O)N2CCc3ccccc3[C@@H]2c2ccc(F)cc2)OC1 [Compound 5042, ((2R,5S)-5-aminotetrahydro-2H-pyran-2-yl)((S)-1-(4-fluorophenyl)-3,4-dihydroisoquinolin-2(1H)-yl)methanone] | 6 (at least about 250% (Activity level 6)) | –
3 | 0.15 µM | CCN1C(=O)CN[C@H]2C[C@H](C(=O)N3CCc4ccccc4[C@@H]3c3ccc(F)cc3)OC[C@@H]21 [Compound 5536, (4aR,7R,8aS)-4-ethyl-7-((S)-1-(4-fluorophenyl)-1,2,3,4-tetrahydroisoquinoline-2-carbonyl)hexahydro-2H-pyrano[3,4-b]pyrazin-3(4H)-one] | – | –
4 | 0.029 µM | N[C@H]1C[C@H](C(=O)N2CCc3ccccc3[C@@H]2c2ccc(F)cc2)OC[C@@H]1CO [Compound 5537, ((2R,4S,5S)-4-amino-5-(hydroxymethyl)tetrahydro-2H-pyran-2-yl)((S)-1-(4-fluorophenyl)-3,4-dihydroisoquinolin-2(1H)-yl)methanone] | – | –
5 | 0.064 µM | N[C@H]1C[C@H](C(=O)N2CCc3ccccc3[C@@H]2c2ccc(F)cc2)OC[C@H]1CO [Compound 5538, ((2R,4S,5R)-4-amino-5-(hydroxymethyl)tetrahydro-2H-pyran-2-yl)((S)-1-(4-fluorophenyl)-3,4-dihydroisoquinolin-2(1H)-yl)methanone] | – | –
6 | 0.001 µM | N[C@H]1C[C@H](C(=O)N2CCc3ccccc3[C@@H]2c2ccc(F)cc2)OC[C@@H]1NCC(F)(F)F [Compound 5539, ((2R,4S,5R)-4-amino-5-((2,2,2-trifluoroethyl)amino)tetrahydro-2H-pyran-2-yl)((S)-1-(4-fluorophenyl)-3,4-dihydroisoquinolin-2(1H)-yl)methanone] | – | –
7 | – | C#CCO[C@H]1CO[C@@H](C(=O)N2CCc3ccccc3[C@@H]2c2ccc(F)cc2)C[C@@H]1N [Compound 5541, ((2R,4S,5R)-4-amino-5-(prop-2-yn-1-yloxy)tetrahydro-2H-pyran-2-yl)((S)-1-(4-fluorophenyl)-3,4-dihydroisoquinolin-2(1H)-yl)methanone] | – | 0.001 µM
8 | 4.39 µM | O=C([C@H]1C[C@@H]2NCCS(=O)(=O)[C@H]2CO1)N1CCc2ccccc2[C@@H]1c1ccc(F)cc1 [Compound 5542, ((4aR,7R,8aS)-4,4-dioxidooctahydropyrano[3,4-b][1,4]thiazin-7-yl)((S)-1-(4-fluorophenyl)-3,4-dihydroisoquinolin-2(1H)-yl)methanone] | – | –
9 | 0.03 µM | C#CCO[C@H]1COC(C(=O)N2CCc3ccccc3[C@@H]2c2ccc(F)cc2)C[C@@H]1NCCCOC (some centres unmarked) [Compound 5546] | – | –
10 | 1.02 µM | [NH-][S@@+2]1([O-])CCN[C@H]2C[C@H](C(=O)N3CCc4ccccc4[C@@H]3c3ccc(F)cc3)OC[C@@H]21 [Compound 5553, ((S)-1-(4-fluorophenyl)-3,4-dihydroisoquinolin-2(1H)-yl)((4R,4aR,7R,8aS)-4-imino-4-oxidooctahydro-2H-^4-pyrano[3,4-b][1,4]thiazin-7-yl)methanone] | – | –
11 | 0.004 µM | CC[C@@H]1CN[C@H]2C[C@H](C(=O)N3CCc4ccccc4[C@@H]3c3ccc(F)cc3)OC[C@@H]2O1 [Compound 5564, ((3R,4aR,7R,8aS)-3-ethyloctahydropyrano[3,4-b][1,4]oxazin-7-yl)((S)-1-(4-fluorophenyl)-3,4-dihydroisoquinolin-2(1H)-yl)methanone] | – | –
12 | > 0.3 µM | CCC[C@@H]1CN[C@H]2C[C@H](C(=O)N3CCc4ccccc4[C@@H]3c3ccc(F)cc3)OC[C@@H]2O1 [Compound 5565] | – | –
13 | > 0.3 µM | COC[C@@H]1CN[C@H]2C[C@H](C(=O)N3CCc4ccccc4[C@@H]3c3ccc(F)cc3)OC[C@@H]2O1 [Compound 5566] | – | –
14 | 0.07 µM | CC(C)[C@@H]1CN[C@H]2C[C@H](C(=O)N3CCc4ccccc4[C@@H]3c3ccc(F)cc3)OC[C@@H]2O1 [Compound 5567] | – | –
15 | 0.025 µM | CO[C@H]1CO[C@@H](C(=O)N2CCc3ccccc3[C@@H]2c2ccc(F)cc2)C[C@@H]1NCCO [Compound 5568] | – | –
16 | > 0.3 µM | COCCN[C@H]1C[C@H](C(=O)N2CCc3ccccc3[C@@H]2c2ccc(F)cc2)OC[C@@H]1OC [Compound 5569, ((S)-1-(4-fluorophenyl)-3,4-dihydroisoquinolin-2(1H)-yl)((2R,4S,5R)-5-methoxy-4-((2-methoxyethyl)amino)tetrahydro-2H-pyran-2-yl)methanone] | – | –
17 | 0.232 µM | CO[C@H]1CO[C@@H](C(=O)N2CCc3ccccc3[C@@H]2c2ccc(F)cc2)C[C@@H]1NCCC(F)(F)F [Compound 5570] | – | –
18 | 0.028 µM | CO[C@H]1CO[C@@H](C(=O)N2CCc3ccccc3[C@@H]2c2ccc(F)cc2)C[C@@H]1N(C)C [Compound 5575, ((2R,4S,5R)-4-(dimethylamino)-5-methoxytetrahydro-2H-pyran-2-yl)((S)-1-(4-fluorophenyl)-3,4-dihydroisoquinolin-2(1H)-yl)methanone] | – | –
19 | > 0.3 µM | CO[C@H]1CO[C@@H](C(=O)N2CCc3ccccc3[C@@H]2c2ccc(F)cc2)C[C@@H]1NCC(F)(F)F [Compound 5577] | – | –
20 | 0.03 µM | C=CCN[C@H]1C[C@H](C(=O)N2CCc3ccccc3[C@@H]2c2ccc(F)cc2)OC[C@@H]1OC [Compound 5578] | – | –
21 | 0.05 µM | CCCN[C@H]1C[C@H](C(=O)N2CCc3ccccc3[C@@H]2c2ccc(F)cc2)OC[C@@H]1OC [Compound 5579] | – | –
22 | 0.219 µM | CN[C@H]1C[C@H](C(=O)N2CCc3ccccc3[C@@H]2c2ccc(F)cc2)OC[C@@H]1O [Compound 5586] | – | –
23 | 0.194 µM | CCN[C@H]1C[C@H](C(=O)N2CCc3ccccc3[C@@H]2c2ccc(F)cc2)OC[C@@H]1O [Compound 5587] | – | –
24 | 0.001 µM | CCN1CCN[C@H]2C[C@H](C(=O)N3CCc4ccccc4[C@@H]3c3ccc(F)cc3)OC[C@@H]21 [Compound 5599] | – | –
25 | 0.021 µM | CCCN1CCN[C@H]2C[C@H](C(=O)N3CCc4ccccc4[C@@H]3c3ccc(F)cc3)OC[C@@H]21 [Compound 5600] | – | –
26 | 0.018 µM | COCCN1CCN[C@H]2C[C@H](C(=O)N3CCc4ccccc4[C@@H]3c3ccc(F)cc3)OC[C@@H]21 [Compound 5601] | – | –
27 | 0.008 µM | CC(C)(C)N1CCN[C@H]2C[C@H](C(=O)N3CCc4ccccc4[C@@H]3c3ccc(F)cc3)OC[C@@H]21 [Compound 5603] | – | –
